Measured values taken from US20140322227A1, “PEPTIDES FOR TREATMENT OF BONE DEFICIENCY AND AUTOIMMUNE DISORDERS” (H. LEE MOFFITT CANCER CENTER & RESEARCH INSTITUTE, INC., priority 2013, published 2014).
Numbered stars: 1 amine (or outer) side, 2 acyl side, 3 side chain; on linkers, the order of the positions; unused ones are H or OH. Bridge positions count the residues as written; N and C are the ends. Square brackets hold non-standard residues; d marks the D form. Peptide text beside a SMILES is read from it. * marks the point of attachment. dProlinol(O-CH2CO) = O=C(COC[C@H]1CCCN1[*:1])[*:2]; N(2-Aminoethyl)Gly = O=C(CN(CCN[*:3])[*:1])[*:2]; Nle = CCCC[C@H](N)C(=O)O; Ms = CS(=O)(=O)*

Key:
[1] = Stability of MTI-101 in plasma (rat); type: in vitro ADME
[2] = Stability of MTI-101 in plasma (dog); type: in vitro ADME
[3] = Stability of MTI-101 in plasma (mouse); type: in vitro ADME; settings: room temperature
RAW 264.7 cells = assay: Annexin V flow cytometry cell death assay in RAW 264.7 cells; type: cell-based, murine
Protocol: FIGS. 5A-5D show the effect of a cyclic HYD1 peptide (MTI-101) on RAW 264.7 cells (FIGS. 5A and 5B) and on RAW 264.7 cell-differentiated osteoclasts (FIGS. 5C and 5D). RAW 264.7 cells were treated with 6.25 to 50 μM MTI-101 and at the end of 24 hrs the cells were scrapped and spun down. After a single wash the cells were stained with Annexin V-FITC dye. The resulting Annexin V positivity was determined using Calibur Flow cytometry. RAW 264.7 cells were treated with 6.25 to 50 μM and incubated for 72 hrs. At the end of the incubation 2 mg/ml of 3-(4,5-dimethythiazol-2-yl)-2,5-diphenyl tetrazolium bromide (MTT). After 4 hours incubation, the resulting formazan product was solubilized by addition of DMSO and the resulting color was measured by a plate reader. […] For quantification, the cells in each treated well were manually counted using a light microscope (FIG. 5C). […]
FIGS. 6A-6C show the effect of cyclic peptide (MTI-101) on RAW 264.7 cells and on RAW 264.7 cell-differentiated osteoclasts. […] The resulting Annexin V positivity was determined using Calibur Flow cytometry. […] After 4 hours incubation the resulting formazan product was solubilized by addition of DMSO and the resulting color was measured by a plate reader. […] For quantification, the cells in each treated well were manually counted using a light microscope. […]

tumor bearing tibias = assay: Bone density (BV/TV) of tumor bearing tibias by CT scanning in myeloma model; type: in vivo; settings: compared to vehicle control (VC) treated tumor bearing mice
Protocol: FIG. 43. MTI-101 treated mice show increased trabecular bone density compared to tumor-bearing vehicle control-treated mice (VC). The same 10 tibia bones imaged by Faxitron in FIG. 43 were imaged with a Micro PET/SPECT/CT (Siemens Inveon). After imaging, the bones were reconstructed using COBRA (Constraint Based Reconstruction and Analysis) and analyzed with the Siemens Inveon workstation. 30 separate longitudinal images for each tibia were measured for both bone volume and total volume with the indicated parameters (2 mm below growth plate to 2 mm above junction with fibula). All 30 images were combined and the tibia were analyzed by bone volume/total volume (BV/TV). Images of the control group were compared to both MTI-101 and bortezomib treated mice. […] The same bones that were assayed for tumor volume in FIG. 43 were used to determine bone density by CT scanning.

[4] = reported; independent of the direct effect on the myeloma cell; cited from earlier work
[5] = 4 degrees Celsius, read-out: Stability - 24 Hour 4 Degrees Celsius
[6] = room temperature, read-out: Stability - 24 Hour Room Temperature

Structure (SMILES)	remaining at 24 h [1, 5]	remaining at 24 h [1, 6]	remaining at 24 h [2, 5]	remaining at 24 h [2, 6]	remaining at 24 h [3]	cell death (Annexin V positivity) (RAW 264.7 cells; multiple dosing 6.25 to 50 μM on days 1, 3 and 5, read day 7)	cell death (Annexin V positivity) (RAW 264.7 cells; single treatment 6.25 to 50 μM, 24 hrs)	bone density (bone volume/total volume, BV/TV) (tumor bearing tibias)	bone anabolic effects [4]
CCCC[C@@H]1NC(=O)CN(S(C)(=O)=O)CCNC(=O)[C@H](CCCCN)NC(=O)[C@H](CC(C)C)NC(=O)[C@H](CCCCN)NC(=O)[C@H](CC(C)C)NC(=O)[C@H](CCCCN)NC(=O)COC[C@H]2CCCN2C(=O)[C@H](Cc2c[nH]c3ccccc23)NC(=O)[C@H](C)NC(=O)[C@H](C(C)C)NC(=O)[C@H](C(C)C)NC1=O [MTI-101] (Ms-[N(2-Aminoethyl)Gly][Nle]VVAW[dProlinol(O-CH2CO)]KLKLK; lactam 1-C)	94%	90%	83%	67%	85%	nor did it induce cell death	nor did it induce cell death		
CC(C)C[C@H](NC(=O)[C@H](Cc1ccccc1)NC(=O)c1cnccn1)B(O)O [bortezomib]								increased bone density	induce bone anabolic effects
CC(C)C[C@H](NC(=O)[C@H](CCc1ccccc1)NC(=O)CN1CCOCC1)C(=O)N[C@@H](Cc1ccccc1)C(=O)N[C@@H](CC(C)C)C(=O)[C@@]1(C)CO1 [carfilzomib]									induce bone anabolic effects
